# Assay results taken from paper PMC9118553, “In Vivo Bioconcentration of 10 Anionic Surfactants in Rainbow Trout Explained by In Vitro Data on Partitioning and S9 Clearance” (Environmental Science & Technology, 2022).
# Several values for one entry are separate records, joined by “and”; a condition that tells them apart may be missing. Equal values may be shown once. Read-outs that look alike come from different tables or passages of the source. Marks after values point to notes of the source that are not given here.
# What was measured:
# [1] = cited from earlier work; for log DMW, membrane-water distribution ratio: marked * = measured, used for IVIVE, same values as Table 3
# rainbow trout = test: In vivo bioconcentration experiment with a mixture of anionic surfactants, flow-through aquaria, 10 °C, pH 7.8; settings: for Log BCF: determined with measured concentrations in water; for Concentration in fish: individual fish; for BCF (kinetic): kinetic BCF from measured concentrations in water
# Procedure: The bioconcentration of a mixture of 10 anionic surfactants was measured in rainbow trout in water at pH 7.8. […] The experiment was conducted in flow-through aquaria with juvenile rainbow trout at 10 °C. Ethical approval for the experiments was obtained from Stockholms […] (decision 9967-2017). The fish, fish housing, fish handling, and procedure for introducing the mixture of […] chemicals were very similar to our previous study with cationic surfactants;[5] details are provided in Text S1. The experiment consisted of a 4-day exposure phase and a 7-day depuration phase. […] Water samples were collected and fish were sacrificed according to the schedule in Table S4. The water samples were collected just prior to the daily removal of feces from the aquarium. Triplicate samples were taken at each time point. […] The water/methanol mixture was analyzed using liquid chromatography-mass spectrometry (LC-MS)/MS as described below for fish. At each fish sampling, five fish were sacrificed. Following stunning and severance of the spinal cord, the whole fish were placed in a polyethylene bag, weighed, and immediately frozen at -20 °C. The weight of the individual fish at sacrifice was 24.0 ± 5.6 g. Three of the five fish from each time point were prioritized for analysis based on proximity to the median fish weight. Each fish was […] homogenized with an Ultra-turrax dispersing device. […] This mixture was homogenized in a bullet blender for 5 min and then placed in an ultrasound bath at 45 °C for 15 min. Following centrifugation for 15 min@3200 RCF, the supernatant was decanted and the extraction was repeated. The extracts were combined. For instrumental analysis, 5 μL of the fish extract or 60 μL of the water/methanol mixture (water samples) was separated on an Acquity UPLC BEH C18 column fitted with a BEH C18 pre-column and analyzed on a TSQ Quantiva triple quadrupole mass spectrometer. The mobile phase was methanol (10 mM ammonium acetate) and Milli-Q-filtered water (10 mM ammonium acetate) (see Table S5 for the liquid chromatography program). To avoid detergent blank peaks originating from cleaning mobile phase bottles, the methanol was prepared directly in the solvent bottle as delivered and Milli-Q was tapped into an empty methanol bottle. Furthermore, a guard column was fitted between the mobile phase and the autosampler to prevent background contamination from disturbing the analysis. All analytes were quantified against the BEHP internal standard, as it gave better reproducibility. […] The central goal of the analysis was to estimate kU and kT as well as the BCF (=kU/kT) from measurements of surfactant concentration in fish and water samples collected at different time points of the experiment. For the fish, only those time points were included for which CF(measured) was above the limit of quantitation (LOQ) in all three fish (data below the LOQ will have a positive bias; including them would result in a negative bias in kT). In this analysis, there exist two sources of uncertainty: first, uncertainty in the actual concentration in water CW at the time of sample collection and second, variability in the concentration in fish around the (expected) surfactant concentrations in fish assumed to follow model (1). We therefore set up a model in which we considered uncertainty in both water and fish measurements simultaneously by assuming a parametric model for the surfactant concentration in the water over time (either linear or quadratic) and accounted for the uncertainty in the corresponding parameters of the water model during the estimation of kU and kT. This was done in a joint Bayesian model that we estimated via Hamiltonian Monte Carlo. […]
# [2] = determined using nominal concentrations in water
# [3] = from measured concentrations in water, Bayesian estimate, 95% credible interval in brackets
# [4] = 95% credible interval in brackets
# [5] = measured concentrations in water, simpler estimation method (Text S3), 95% confidence intervals in brackets
Log BCF (rainbow trout) [L kg-1 ww],Structure (SMILES),"log DMW, membrane-water distribution ratio [1]","Concentration in fish (rainbow trout; elimination phase, 97 h)","Concentration in fish (rainbow trout; elimination phase, 98 h)","Concentration in fish (rainbow trout; elimination phase, 100 h)","Concentration in fish (rainbow trout; elimination phase, 103 h)","Concentration in fish (rainbow trout; elimination phase, 120 h)","Concentration in fish (rainbow trout; elimination phase, 128 h)","Concentration in fish (rainbow trout; elimination phase, 144 h)","Concentration in fish (rainbow trout; elimination phase, 168 h)","Concentration in fish (rainbow trout; elimination phase, 192 h)","Concentration in fish (rainbow trout; elimination phase, 264 h)","Concentration in fish (rainbow trout; exposure phase, 1 h)","Concentration in fish (rainbow trout; exposure phase, 2 h)","Concentration in fish (rainbow trout; exposure phase, 3 h)","Concentration in fish (rainbow trout; exposure phase, 4 h)","Concentration in fish (rainbow trout; exposure phase, 6 h)","Concentration in fish (rainbow trout; exposure phase, 24 h)","Concentration in fish (rainbow trout; exposure phase, 48 h)","Concentration in fish (rainbow trout; exposure phase, 72 h)",further results
1.47,"CCCCCCCCCCCCCCS(=O)(=O)O [C14SO3, tetradecylsulfonate]",4.95,113 ng g-1 ww and 118 ng g-1 ww and 164 ng g-1 ww,130 ng g-1 ww and 119 ng g-1 ww and 109 ng g-1 ww,185 ng g-1 ww and 93 ng g-1 ww and 114 ng g-1 ww,94 ng g-1 ww and 194 ng g-1 ww and 108 ng g-1 ww,62 ng g-1 ww and 81 ng g-1 ww and 50 ng g-1 ww,60 ng g-1 ww and 45 ng g-1 ww and 68 ng g-1 ww,42 ng g-1 ww and 31 ng g-1 ww and 70 ng g-1 ww,30 ng g-1 ww and 28 ng g-1 ww and 16.5 ng g-1 ww,11.9 ng g-1 ww and 8.6 ng g-1 ww and 12.7 ng g-1 ww,6.6 ng g-1 ww and 4.8 ng g-1 ww and 1.75 ng g-1 ww,38 ng g-1 ww and 7.5 ng g-1 ww and 72 ng g-1 ww,11.3 ng g-1 ww and 11.7 ng g-1 ww and 6.8 ng g-1 ww,16.0 ng g-1 ww and 19.9 ng g-1 ww and 15.9 ng g-1 ww,27 ng g-1 ww and 153 ng g-1 ww and 415 ng g-1 ww,41 ng g-1 ww and 39 ng g-1 ww and 32 ng g-1 ww,101 ng g-1 ww and 111 ng g-1 ww and 80 ng g-1 ww,152 ng g-1 ww and 155 ng g-1 ww and 117 ng g-1 ww,180 ng g-1 ww and 141 ng g-1 ww and 103 ng g-1 ww,"log DMLW ([1]; measurement from Droge): 4.95 ^e L kg^–1; BCF (rainbow trout; [2]): 32 L kg-1 ww; Elimination rate constant kT (rainbow trout; [2]): 0.028 h⁻¹; Uptake rate constant kU (rainbow trout; [2]): 0.90 L/kg/h; Concentration in fish (rainbow trout; exposure phase, 96 h): 168 ng g-1 ww and 150 ng g-1 ww and 178 ng g-1 ww; Elimination rate constant kT (rainbow trout; [3]): 0.024 (0.022–0.026) h^–1; Uptake rate constant kU (rainbow trout; [3]): 0.70 (0.61–0.80) L kg^–1 ww h^–1; diffusion coefficient (D) in the epithelial membrane of the gills (rainbow trout; in vivo): 3.1 × 10^–8 m h^–1; BCF (kinetic) (rainbow trout; [4]): 30 (26–33) L kg^–1 ww; BCF (rainbow trout; [5]): 28 (8) L kg-1 ww; Elimination rate constant kT (rainbow trout; [5]): 0.026 (5) h-1; Uptake rate constant kU (rainbow trout; [5]): 0.73 (6) L kg-1 ww h-1"
3.14,"CCCCCCCCCCCCCCCCS(=O)(=O)O [C16SO3, hexadecylsulfonate]",6.19,4206 ng g-1 ww and 4275 ng g-1 ww and 4280 ng g-1 ww,3644 ng g-1 ww and 3202 ng g-1 ww and 3035 ng g-1 ww,4355 ng g-1 ww and 3469 ng g-1 ww and 3603 ng g-1 ww,3251 ng g-1 ww and 4192 ng g-1 ww and 3692 ng g-1 ww,2630 ng g-1 ww and 4641 ng g-1 ww and 2805 ng g-1 ww,3635 ng g-1 ww and 2712 ng g-1 ww and 2831 ng g-1 ww,2859 ng g-1 ww and 2503 ng g-1 ww and 3401 ng g-1 ww,2804 ng g-1 ww and 2276 ng g-1 ww and 2244 ng g-1 ww,1669 ng g-1 ww and 1852 ng g-1 ww and 2440 ng g-1 ww,1420 ng g-1 ww and 2150 ng g-1 ww and 967 ng g-1 ww,440 ng g-1 ww and 319 ng g-1 ww and 614 ng g-1 ww,300 ng g-1 ww and 304 ng g-1 ww and 147 ng g-1 ww,347 ng g-1 ww and 392 ng g-1 ww and 451 ng g-1 ww,510 ng g-1 ww and 1310 ng g-1 ww and 2283 ng g-1 ww,557 ng g-1 ww and 678 ng g-1 ww and 649 ng g-1 ww,2045 ng g-1 ww and 1698 ng g-1 ww and 1479 ng g-1 ww,3941 ng g-1 ww and 3596 ng g-1 ww and 1879 ng g-1 ww,1532 ng g-1 ww and 3782 ng g-1 ww and 3167 ng g-1 ww,"Uptake rate constant kU (rainbow trout): 6.3 L kg^–1 h^–1; Concentration in fish (rainbow trout; exposure phase, 96 h): 3775 ng g-1 ww and 5248 ng g-1 ww and 3695 ng g-1 ww; Elimination rate constant kT (rainbow trout; [3]): 0.0047 (0.0026–0.0062) h^–1; Uptake rate constant kU (rainbow trout; [3]): 6.3 (5.3–7.4) L kg^–1 ww h^–1; diffusion coefficient (D) in the epithelial membrane of the gills (rainbow trout; in vivo): 1.6 × 10^–8 m h^–1; BCF (kinetic) (rainbow trout; [4]): 1370 (1070–2200) L kg^–1 ww; BCF (rainbow trout; [5]): 1480 (14) L kg-1 ww; Elimination rate constant kT (rainbow trout; [5]): 0.0073 (10) h-1; Uptake rate constant kU (rainbow trout; [5]): 10.8 (10) L kg-1 ww h-1"

Structure (SMILES),Log BCF (rainbow trout) [L kg-1 ww],"log DMW, membrane-water distribution ratio [1]","Concentration in fish (rainbow trout; elimination phase, 97 h)","Concentration in fish (rainbow trout; elimination phase, 98 h)","Concentration in fish (rainbow trout; elimination phase, 100 h)","Concentration in fish (rainbow trout; elimination phase, 103 h)","Concentration in fish (rainbow trout; elimination phase, 120 h)","Concentration in fish (rainbow trout; elimination phase, 128 h)","Concentration in fish (rainbow trout; elimination phase, 144 h)","Concentration in fish (rainbow trout; elimination phase, 168 h)","Concentration in fish (rainbow trout; elimination phase, 192 h)","Concentration in fish (rainbow trout; elimination phase, 264 h)","Concentration in fish (rainbow trout; exposure phase, 1 h)","Concentration in fish (rainbow trout; exposure phase, 2 h)","Concentration in fish (rainbow trout; exposure phase, 3 h)","Concentration in fish (rainbow trout; exposure phase, 4 h)","Concentration in fish (rainbow trout; exposure phase, 6 h)","Concentration in fish (rainbow trout; exposure phase, 24 h)","Concentration in fish (rainbow trout; exposure phase, 48 h)","Concentration in fish (rainbow trout; exposure phase, 72 h)",further results
"CCCCC(CC)COC(=O)CC(C(=O)OCC(CC)CCCC)S(=O)(=O)O (centres unmarked) [DOSS, bis(2-ethylhexyl)sulfosuccinate]",0.15,4.58,69 ng g-1 ww and 70 ng g-1 ww,25 ng g-1 ww and 34 ng g-1 ww,92 ng g-1 ww and 49 ng g-1 ww and 45 ng g-1 ww,35 ng g-1 ww and 33 ng g-1 ww,14.2 ng g-1 ww and 36 ng g-1 ww and 13.5 ng g-1 ww,15.7 ng g-1 ww and 17.8 ng g-1 ww,4.1 ng g-1 ww and 6.4 ng g-1 ww and 24 ng g-1 ww,2.3 ng g-1 ww and 7.9 ng g-1 ww and 3.0 ng g-1 ww,0.75 ng g-1 ww and 4.2 ng g-1 ww and 0.92 ng g-1 ww,4.5 ng g-1 ww and 2.9 ng g-1 ww and 0.40 ng g-1 ww,10.9 ng g-1 ww and 5.8 ng g-1 ww and 17.8 ng g-1 ww,11.0 ng g-1 ww and 7.5 ng g-1 ww,17.4 ng g-1 ww and 15.2 ng g-1 ww,21 ng g-1 ww and 42 ng g-1 ww and 106 ng g-1 ww,32 ng g-1 ww and 25 ng g-1 ww,59 ng g-1 ww and 41 ng g-1 ww,66 ng g-1 ww and 56 ng g-1 ww,59 ng g-1 ww and 78 ng g-1 ww,"log DMLW ([1]; measurement from Droge et al.): 4.58 ^f L kg^–1; Uptake rate constant kU (rainbow trout): 0.090 L kg^–1 h^–1; BCF (rainbow trout; [2]): 3.0 L kg-1 ww; Uptake rate constant kU (rainbow trout; [2]): 0.169 L/kg/h; Concentration in fish (rainbow trout; exposure phase, 96 h): 62 ng g-1 ww and 67 ng g-1 ww; Uptake rate constant kU (rainbow trout; [3]): 0.090 (0.074–0.110) L kg^–1 ww h^–1; BCF (kinetic) (rainbow trout; [4]): 1.42 (1.22–1.66) L kg^–1 ww; BCF (rainbow trout; [5]): 1.37 (14) L kg-1 ww; Uptake rate constant kU (rainbow trout; [5]): 0.088 (9) L kg-1 ww h-1; BCF (rainbow trout; own values): 1.42 L kg^–1; diffusion coefficient (D) in the epithelial membrane of the gills (rainbow trout; solved from eq 3 with kU, DMLW, gill area, fish 0.024 kg, membrane density 1 kg L^–1): 9.3 × 10^–9 m h^–1"
